Experimental data reported in article PMC7155755, “Binding of the Human 14-3-3 Isoforms to Distinct Sites in the Leucine-Rich Repeat Kinase 2” (Frontiers in Neuroscience, 2020).
“Also recorded” adds a separate entry of the source. Square brackets hold non-standard residues; d marks the D form. Primed or numbered codes have the meaning given here. Ends that are not written are not given here. fluorescein″ = fluorescein label on the N-terminus; fluorescein = N-terminal fluorescein label; pS = N[C@@H](COP(=O)(O)O)C(=O)O

T1: human 14-3-3γ (Homo sapiens, UniProt P61981)
T1 construct: MBP (cleaved yes); made in house; host or cells: E. coli BL21DE3
T1 sequence (P61981 1-247): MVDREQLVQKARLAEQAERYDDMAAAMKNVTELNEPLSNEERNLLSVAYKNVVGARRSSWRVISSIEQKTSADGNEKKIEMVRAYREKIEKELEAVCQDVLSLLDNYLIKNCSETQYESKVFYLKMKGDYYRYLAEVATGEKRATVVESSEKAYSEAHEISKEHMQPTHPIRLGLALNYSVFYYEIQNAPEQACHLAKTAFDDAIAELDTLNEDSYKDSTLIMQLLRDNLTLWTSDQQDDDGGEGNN

T2: R1441C/pS1444 (R1441C (stands in the printed letters))
T2 construct: LRRK2-derived peptide of the Roc domain with the familial PD mutation R1441C, phosphorylated at S1444; source: synthetic peptide (Peps4LS GmbH)
T2 peptide: fluorescein-LFNIKACAS[pS]SPVILVGT


What was measured:
human 14-3-3γ = target: T1, human 14-3-3γ; assay: Fluorescence polarization (FP) direct binding assay; settings: fluorescein-labeled peptide 1 nM; for Kd: 20 mM MOPS pH 7, 150 mM NaCl, 0.005% CHAPS, at least three independent measurements, read-out: Binding affinity (KD) toward 14-3-3 isoform γ; for Binding to 14-3-3γ, in words: dilution series of 14-3-3γ (at least 5 μM down to pM), FP buffer pH 7
Description: (§1) Human MBP-tagged 14-3-3 isoforms were expressed from pMAL2CX plasmids [[Kilisch et al. (2016)], [Yuan et al. (2003)]] in E. coli BL21DE3 cells. After induction with […] isopropyl-β-D-thiogalactoside, the protein was expressed for 4 h at room temperature. Cells were lysed in MBP-lysis buffer [50 mM Tris–HCl pH 7.5, 150 mM NaCl, 5 mM MgCl2, 1 mM PMSF, 1× cOmplete Protease Inhibitor EDTA-free (Roche)] using a French Pressure cell (FRENCH Press, Thermo, United States). Following centrifugation at 42,000 × g and 4°C for 30 min, the supernatant was transferred to a Maltose-agarose column (1.5 ml bed volume; New England Biolabs GmbH, Germany). Captured proteins were washed six times with 10 ml wash buffer (50 mM Tris–HCl pH 7.5, 150 mM NaCl, 5 mM MgCl2) prior to elution using wash buffer including 15 mM D-maltose. To remove the MBP tag, fusion proteins were incubated with Factor Xa (New England Biolabs GmbH, Germany), at a final concentration of 0.4 μg per 1 mg fusion protein for 24 h at RT following another 72 h at 4°C. Anion exchange chromatography was finally applied to separate residual MBP using a buffer gradient from 20 mM Tris pH 8 to 20 mM Tris pH 8 with 1 M NaCl. For this a RESOURCE Q column (GE Healthcare, United Kingdom) was utilized, employing an ÄKTApurifier (GE Healthcare, United Kingdom) or an NGC Quest Chromatography System (Bio-Rad Laboratories GmbH, Germany).
(§2) FP was used to determine binding affinities of different phosphorylated and non-phosphorylated peptides derived from LRRK2 sequences (Peps4LS GmbH, Germany) toward human 14-3-3 isoforms. Direct binding assays were performed and evaluated as previously described ([Muda et al., 2014]; [Manschwetus et al., 2019]). Briefly, both dilution series of 14-3-3 isoforms ranging from final concentrations of at least 5 μM down to picomolar concentrations and dilutions of the respective fluorescein-labeled peptide (final conc. 1 nM) were prepared in FP buffer (20 mM MOPS pH 7, 150 mM NaCl, 0.005% CHAPS). Subsequently, samples were mixed in 384-well microtiter plates as duplicates (BRAND plates, pureGrade, black, BRAND GmbH & Co. KG, Germany) in a 1:1 ratio and measured using a CLARIOstar plate reader (BMG LABTECH, Germany). Two protein preparations were utilized for at least two independent replications for all measurements while high affinity binding peptides were particularly measured with a minimum of three independent replications for statistical evaluation. Data was analyzed with GraphPad Prism 6.0 (GraphPad Software, San Diego, CA, United States) by plotting obtained FP signals (mPol) against the logarithmic 14-3-3 protein concentrations. Data points represent means ± standard error of mean (SEM) of duplicates. “Ctrl.” indicates the FP signal of fluorescein-labeled peptides without 14-3-3 protein. Sigmoidal dose-response fitting was performed to define KD-values.

[1] = test system: all seven human 14-3-3 isoforms; assay: Fluorescence polarization (FP) direct binding assay, statements over all isoforms; settings: for Binding to the human 14-3-3 isoforms, in words: FP direct binding, all seven isoforms, fluorescein-labeled peptide 1 nM, FP buffer pH 7
Description: as §1, §2

pS1444 = assay: fluorescence polarisation; direct binding; dilution series of 14-3-3 isoform (at least 5 μM down to picomolar) mixed with 1 nM fluorescein-labelled peptide; 20 mM MOPS pH 7, 150 mM NaCl, 0.005% CHAPS; 384-well plates
R1441C/pS1444 = target: T2, R1441C/pS1444; assay: as above; settings: both partners purified

Molecule	Binding to 14-3-3γ, in words (human 14-3-3γ)	Binding to the human 14-3-3 isoforms, in words [1]	further results
CC[C@H](C)[C@H](NC(=O)[C@@H]1CCCN1C(=O)CNC(=O)[C@H](CC(C)C)NC(=O)[C@H](COP(=O)(O)O)NC(=O)[C@H](CC(N)=O)NC(=O)[C@H](CO)NC(=O)[C@H](Cc1c[nH]cn1)NC(=O)[C@H](CCCNC(=N)N)NC(=O)[C@H](CCCNC(=N)N)NC(=O)[C@H](CC(C)C)NC(=O)[C@H](CC(N)=O)NC(=O)[C@@H]1CCCN1C(=O)[C@H](CO)NC(=O)[C@H](CS)NC(=O)[C@@H](N)CCCNC(=N)N)C(=O)N[C@@H](Cc1ccccc1)C(=O)N[C@@H](CC(=O)O)C(=O)N[C@@H](Cc1c[nH]cn1)C(=O)O [Q930R/pS935]			Kd (human 14-3-3γ): 11.1 ± 10.7 nM
CC[C@H](C)[C@H](NC(=O)[C@H](COP(=O)(O)O)NC(=O)[C@H](CC(N)=O)NC(=O)[C@H](CO)NC(=O)[C@H](CCCCN)NC(=O)[C@@H](N)CCCCN)C(=O)N[C@@H](CO)C(=O)N[C@H](C(=O)NCC(=O)N[C@@H](CCC(=O)O)C(=O)N[C@@H](Cc1ccccc1)C(=O)N[C@@H](Cc1ccc(O)cc1)C(=O)N[C@@H](CCCNC(=N)N)C(=O)N[C@@H](CC(=O)O)C(=O)N[C@@H](C)C(=O)N[C@H](C(=O)N[C@@H](CC(C)C)C(=O)N[C@@H](CCC(N)=O)C(=O)N[C@@H](CCCNC(=N)N)C(=O)N[C@@H](CS)C(=O)N[C@@H](CO)C(=O)N1CCC[C@H]1C(=O)N[C@@H](CC(N)=O)C(=O)N[C@@H](CC(C)C)C(=O)N[C@@H](CCC(N)=O)C(=O)N[C@@H](CCCNC(=N)N)C(=O)N[C@@H](Cc1c[nH]cn1)C(=O)N[C@@H](CO)C(=O)N[C@@H](CC(N)=O)C(=O)N[C@@H](COP(=O)(O)O)C(=O)N[C@@H](CC(C)C)C(=O)NCC(=O)N1CCC[C@H]1C(=O)N[C@H](C(=O)N[C@@H](Cc1ccccc1)C(=O)O)[C@@H](C)CC)C(C)C)C(C)C [pS910/pS935]			Kd (human 14-3-3γ): 3.2 ± 0.5 nM
KKSNSISVGEFYRDAVLQRCSPNLQRHSNpSLGPIF [S910/pS935, fluorescein-labeled LRRK2-derived 35-mer singly phosphorylated at S935]	only weak interactions	no isoform specificity could be distinguished	
KKSNpSISVGEFYRDAVLQRCSPNLQRHSNSLGPIF [pS910/S935, fluorescein-labeled LRRK2-derived 35-mer singly phosphorylated at S910]	only weak interactions	no isoform specificity could be distinguished	
LFNIKACASpSSPVILVGT [R1441C/pS1444, fluorescein-labeled LRRK2 Roc domain peptide with R1441C and pS1444]	micromolar affinities; also recorded: strongly decreased the nanomolar affinity of pS1444 alone	affinities in the micromolar range	Factor by which the mutation R1441C decreases the affinity to all 14-3-3 isoforms ([1]; FP, R1441C/pS1444 compared with pS1444): ≥ 30
LFNIKARASSSPVILVGT [S1443/S1444, fluorescein-labeled non-phosphorylated LRRK2 Roc domain peptide covering S1443 and S1444]		no detectable binding	
LFNIKARApSSSPVILVGT [pS1443, fluorescein-labeled LRRK2 Roc domain phosphopeptide, pS1443]	did not allow for binding	no detectable binding; also recorded: not demonstrated for any isoform	
RCSPNLQRHpSNSLGPIFDH [pS933, fluorescein-labeled LRRK2-derived phosphopeptide covering pS933]	neither the Q930R mutation nor the additional phosphorylation in pS933 could induce binding	no 14-3-3 binding was detectable	
RCSPNLRRHSNSLGPIFDH [Q930R, fluorescein-labeled non-phosphorylated LRRK2-derived peptide with mutation Q930R]	neither the Q930R mutation nor the additional phosphorylation in pS933 could induce binding		
RCSPNLRRHpSNSLGPIFDH [Q930R/pS933, fluorescein-labeled LRRK2-derived peptide with mutation Q930R and pS933]		no 14-3-3 binding was detectable	
SPNLQRHSNpSLGPIF [pS935, fluorescein-labeled LRRK2-derived phosphopeptide covering pS935]	did not bind; also recorded: no binding was detected	no binding could be detected; also recorded: could not detect binding; also recorded: non-binding	
human 14-3-3 isoform ε (recombinant, MBP tag removed) (natural protein, UniProt P62258 1-255, looked up, 14-3-3 epsilon, human; Expressed from pMAL2CX plasmids; also called 14-3-3ε; source: E. coli BL21DE3, purified (maltose-agarose, Factor Xa, anion exchange)) MDDREDLVYQAKLAEQAERYDEMVESMKKVAGMDVELTVEERNLLSVAYKNVIGARRASWRIISSIEQKEENKGGEDKLKMIREYRQMVETELKLICCDILDVLDKHLIPAANTGESKVFYYKMKGDYHRYLAEFATGNDRKEAAENSLVAYKAASDIAMTELPPTHPIRLGLALNFSVFYYEILNSPDRACRLAKAAFDDAIAELDTLSEESYKDSTLIMQLLRDNLTLWTSDMQGDGEEQNKEALQDVEDENQ			Kd (pS1444): > 1000 nM; fold decrease in affinity against pS1444 (R1441C/pS1444): ≥ 30 fold
human 14-3-3 isoform ζ (recombinant, MBP tag removed) (natural protein, UniProt P63104 1-245, looked up, 14-3-3 zeta, human; Expressed from pMAL2CX plasmids; also called 14-3-3ζ; source: E. coli BL21DE3, purified (maltose-agarose, Factor Xa, anion exchange)) MDKNELVQKAKLAEQAERYDDMAACMKSVTEQGAELSNEERNLLSVAYKNVVGARRSSWRVVSSIEQKTEGAEKKQQMAREYREKIETELRDICNDVLSLLEKFLIPNASQAESKVFYLKMKGDYYRYLAEVAAGDDKKGIVDQSQQAYQEAFEISKKEMQPTHPIRLGLALNFSVFYYEILNSPEKACSLAKTAFDEAIAELDTLSEESYKDSTLIMQLLRDNLTLWTSDTQGDEAEAGEGGEN			Kd (pS1444): 476 nM; fold decrease in affinity against pS1444 (R1441C/pS1444): ≥ 30 fold
human 14-3-3 isoform β (recombinant, MBP tag removed) (natural protein, UniProt P31946 1-246, looked up, 14-3-3 beta, human; Expressed from pMAL2CX plasmids; also called 14-3-3β; source: E. coli BL21DE3, purified (maltose-agarose, Factor Xa, anion exchange)) MTMDKSELVQKAKLAEQAERYDDMAAAMKAVTEQGHELSNEERNLLSVAYKNVVGARRSSWRVISSIEQKTERNEKKQQMGKEYREKIEAELQDICNDVLELLDKYLIPNATQPESKVFYLKMKGDYFRYLSEVASGDNKQTTVSNSQQAYQEAFEISKKEMQPTHPIRLGLALNFSVFYYEILNSPEKACSLAKTAFDEAIAELDTLNEESYKDSTLIMQLLRDNLTLWTSENQGDEGDAGEGEN			Kd (pS1444): 183 nM; fold decrease in affinity against pS1444 (R1441C/pS1444): ≥ 30 fold

The next lines start with results.

Binding to 14-3-3γ, in words (human 14-3-3γ)	Binding to the human 14-3-3 isoforms, in words [1]	Molecule	further results
did not bind		KKSN SISVGEFYRDAVLQRCSPNLQRHSNSLGPIF ({fluorescein″}-KKSNSISVGEFYRDAVLQRCSPNLQRHSNSLGPIF) [S910/S935, fluorescein-labeled non-phosphorylated LRRK2-derived 35-mer encompassing S910 and S935]	
did not bind; also recorded: no binding	did not bind any of the 14-3-3 isoforms	LFNIKACASSSPVILVGT [R1441C, fluorescein-labeled non-phosphorylated LRRK2 Roc domain peptide with mutation R1441C]	
